Data as given in US11852971B2, “Compound, photosensitive resin composition including the same, photosensitive resin layer, color filter and display device” (SAMSUNG SDI CO., LTD., priority 2019, dated 2023).

Columns and labels:
[1] = Solubility measurement in dilution solvent (PGMEA); assay type: physicochemical; conditions: PGMEA added to 0.5 g compound, stirred 100 rpm, one hour, 25° C.
Protocol: Evaluation 2: Solubility Measurement Solubility of the compounds according to Synthesis Examples 11 to 21 and Comparative Synthesis Examples 1 to 6 were measured by adding a dilution solvent (PGMEA) to 0.5 g of each compound and respectively stirring the mixtures (MIXROTAR VMR-5, Iuchi Seiei Dou Co.) at 100 rpm for one hour at 25° C., and the results are shown in Table 2. Solubility Evaluation Criteria Greater than or equal to 10 wt % of a compound (a solute) based on a total amount of a diluting solvent was dissolved: ∘ Less than 10 wt % of a compound (a solute) based on a total amount of a diluting solvent was dissolved: X

[2] = Measurement of the shortest wavelength of full width at half maximum (FWHM) with respect to maximum absorption wavelength (absorption spectrum); assay type: physicochemical; conditions: 0.005 wt % in PGMEA; UV-1800
Excerpt: The shortest wavelength of the full width at half maximum (FWHM) with respect to the maximum absorption wavelengths denotes a wavelength having the smallest value (a) among the energy widths (Δλ) of the maximum absorption wavelength (b) in the absorption spectrum of a particular phthalocyanine compound. (Refer to the FIGURE)
Evaluation 1: Measurement of the Shortest Wavelength of Full Width at Half Maximum (FWHM) with respect to Maximum Absorption Wavelength
The compounds according to Synthesis Example 1 to Synthesis Example 21 and Comparative Synthesis Example 1 to Comparative Synthesis Example 6 were prepared at a concentration of 0.005 wt % using a diluting solvent (PGMEA). Absorption spectra were obtained for each of the phthalocyanine compounds according to Synthesis Example 1 to […] and Comparative Synthesis Example 1 to Comparative Synthesis Example 6, and the results are shown in Table 1 (UV-1800, SHTMADZU).

Row | SMILES | Solubility [1] | The shortest wavelength (nm) of full width at half maximum (FWHM) with respect to maximum absorption wavelength [2] [nm]
1 | CC(C)CCOc1c(Cl)c(Cl)c2c(c1Cl)/C1=N/c3c4c(Cl)c(OCCC(C)C)c(Cl)c(Cl)c4c4[n]3[Zn][n]3/c(c5ccccc5/c3=N/C2=N1)=N\C1=NC(=N\4)/c2ccccc21 [Synthesis Example 17] | ○ | 611
2 | Cc1ccc(Oc2c(Cl)c(Cl)c3c(c2Cl)/C2=N/c4c5c(Cl)c(Oc6ccc(C)cc6C(C)(C)C)c(Cl)c(Cl)c5c5[n]4[Zn][n]4/c(c6ccccc6/c4=N/C3=N2)=N\C2=NC(=N\5)/c3ccccc32)c(C(C)(C)C)c1 [Synthesis Example 11] | ○ | 611
3 | CC(C)COc1c(Cl)c(Cl)c2c(c1Cl)/C1=N/c3c4c(Cl)c(Cl)c(Cl)c(Cl)c4c4[n]3[Zn][n]3/c(c5ccccc5/c3=N/C2=N1)=N\C1=NC(=N\4)/c2c(Cl)c(Cl)c(Cl)c(Cl)c21 [Synthesis Example 19] | ○ | 618
4 | CC(C)COc1c(Cl)c(Cl)c2c(c1Cl)/C1=N/c3c4c(Cl)c(OCC(C)C)c(Cl)c(Cl)c4c4[n]3[Zn][n]3/c(c5ccccc5/c3=N/C2=N1)=N\C1=NC(=N\4)/c2c(Cl)c(Cl)c(Cl)c(Cl)c21 [Synthesis Example 18] | ○ | 617
5 | COc1ccc(Oc2c(Cl)c(Cl)c3c4[n]5c(c3c2Cl)/N=C2N=C(/N=c3/c6c(Cl)c(Cl)c(Cl)c(Cl)c6/c([n]3[Zn]5)=N/C3=NC(=N\4)/c4c(Cl)c(Cl)c(Cl)c(Cl)c43)c3c(Cl)c(Cl)c(Cl)c(Cl)c3\2)c(OC)c1 [Comparative Synthesis Example 4, reference compound] | X (Less than 10 wt % of a compound (a solute) based on a total amount of a diluting solvent was dissolved) | 626
6 | CC(C)COc1c(Cl)c(Cl)c2c(c1Cl)/C1=N/c3c4c(Cl)c(OCC(C)C)c(Cl)c(Cl)c4c4[n]3[Zn][n]3/c(c5ccccc5/c3=N/C2=N1)=N\C1=NC(=N\4)/c2ccccc21 [Synthesis Example 20] | ○ | 611
7 | Cc1cccc(C)c1Oc1c(Cl)c(Cl)c2c(c1Cl)/C1=N/c3c4c(Cl)c(Oc5c(C)cccc5C)c(Cl)c(Cl)c4c4[n]3[Zn][n]3/c(c5ccccc5/c3=N/C2=N1)=N\C1=NC(=N\4)/c2c(Cl)c(Cl)c(Cl)c(Cl)c21 [Synthesis Example 6] | ○ | 618
8 | CC(C)(C)COc1c(Cl)c(Cl)c2c(c1Cl)/C1=N/c3c4c(Cl)c(OCC(C)(C)C)c(Cl)c(Cl)c4c4[n]3[Zn][n]3/c(c5ccccc5/c3=N/C2=N1)=N\C1=NC(=N\4)/c2ccccc21 [Synthesis Example 14] | ○ | 611
9 | Cc1ccccc1Oc1c(Cl)c(Cl)c2c(c1Cl)/C1=N/c3c4c(Cl)c(Oc5ccccc5C)c(Cl)c(Cl)c4c4[n]3[Zn][n]3/c(c5ccccc5/c3=N/C2=N1)=N\C1=NC(=N\4)/c2c(Cl)c(Cl)c(Cl)c(Cl)c21 [Synthesis Example 5] | ○ | 618
10 | CC(C)(C)c1ccccc1Oc1c(Cl)c(Cl)c2c(c1Cl)/C1=N/c3c4c(Cl)c(Oc5ccccc5C(C)(C)C)c(Cl)c(Cl)c4c4[n]3[Zn][n]3/c(c5cc(Cl)ccc5/c3=N/C2=N1)=N\C1=NC(=N\4)/c2c(Cl)c(Cl)c(Cl)c(Cl)c21 [Comparative Synthesis Example 6, reference compound] | X (Less than 10 wt % of a compound (a solute) based on a total amount of a diluting solvent was dissolved) | 623
11 | CC(C)(C)c1ccc(Oc2c(Cl)c(Cl)c3c(c2Cl)/C2=N/c4c5c(Cl)c(Cl)c(Cl)c(Cl)c5c5[n]4[Zn][n]4/c(c6ccccc6/c4=N/C3=N2)=N\C2=NC(=N\5)/c3c(Cl)c(Cl)c(Cl)c(Cl)c32)c(C(C)(C)C)c1 [Synthesis Example 9] | ○ | 618
12 | COc1ccc(Oc2c(Cl)c(Cl)c3c(c2Cl)C2=NC/3=N\c3c4c(Cl)c(Oc5ccc(OC)cc5OC)c(Cl)c(Cl)c4c4[n]3[Zn][n]3/c(c5c(Cl)c(Cl)c(Oc6ccc(OC)cc6OC)c(Cl)c5/c3=N/C3=NC(=N\4)/c4c(Cl)c(Oc5ccc(OC)cc5OC)c(Cl)c(Cl)c43)=N\2)c(OC)c1 [Comparative Synthesis Example 3, reference compound] | X (Less than 10 wt % of a compound (a solute) based on a total amount of a diluting solvent was dissolved) | 623
13 | CC(C)CCOc1c(Cl)c(Cl)c2c(c1Cl)/C1=N/c3c4c(Cl)c(OCCC(C)C)c(Cl)c(Cl)c4c4[n]3[Zn][n]3/c(c5ccccc5/c3=N/C2=N1)=N\C1=NC(=N\4)/c2c(Cl)c(Cl)c(Cl)c(Cl)c21 [Synthesis Example 15] | ○ | 617
14 | CC(C)(C)COc1c(Cl)c(Cl)c2c(c1Cl)/C1=N/c3c4c(Cl)c(Cl)c(Cl)c(Cl)c4c4[n]3[Zn][n]3/c(c5ccccc5/c3=N/C2=N1)=N\C1=NC(=N\4)/c2c(Cl)c(Cl)c(Cl)c(Cl)c21 [Synthesis Example 13] | ○ | 618
15 | CC(C)CCOc1c(Cl)c(Cl)c2c(c1Cl)/C1=N/c3c4c(Cl)c(Cl)c(Cl)c(Cl)c4c4[n]3[Zn][n]3/c(c5ccccc5/c3=N/C2=N1)=N\C1=NC(=N\4)/c2c(Cl)c(Cl)c(Cl)c(Cl)c21 [Synthesis Example 16] | ○ | 618
16 | CC(C)(C)c1ccc(Oc2c(Cl)c(Cl)c3c(c2Cl)C2=NC/3=N\c3c4c(Cl)c(Cl)c(Oc5ccc(C(C)(C)C)cc5C(C)(C)C)c(Cl)c4c4[n]3[Zn][n]3/c(c5c(Cl)c(Cl)c(Oc6ccc(C(C)(C)C)cc6C(C)(C)C)c(Cl)c5/c3=N/C3=NC(=N\4)/c4c(Cl)c(Oc5ccc(C(C)(C)C)cc5C(C)(C)C)c(Cl)c(Cl)c43)=N\2)c(C(C)(C)C)c1 [Comparative Synthesis Example 2, reference compound] | X (Less than 10 wt % of a compound (a solute) based on a total amount of a diluting solvent was dissolved) | 624
17 | CC(C)(C)c1ccc(Oc2c(Cl)c(Cl)c3c(c2Cl)/C2=N/c4c5c(Cl)c(Oc6ccc(C(C)(C)C)cc6C(C)(C)C)c(Cl)c(Cl)c5c5[n]4[Zn][n]4/c(c6ccccc6/c4=N/C3=N2)=N\C2=NC(=N\5)/c3c(Cl)c(Cl)c(Cl)c(Cl)c32)c(C(C)(C)C)c1 [Synthesis Example 8] | ○ | 616
18 | CCC(C)c1ccccc1Oc1c(Cl)c(Cl)c2c(c1Cl)C1=NC/2=N\c2c3c(Cl)c(Cl)c(Oc4ccccc4C(C)CC)c(Cl)c3c3[n]2[Zn][n]2/c(c4c(Cl)c(Cl)c(Oc5ccccc5C(C)CC)c(Cl)c4/c2=N/C2=NC(=N\3)/c3c(Cl)c(Oc4ccccc4C(C)CC)c(Cl)c(Cl)c32)=N\1 (centres unmarked) [Comparative Synthesis Example 1, reference compound] | X (Less than 10 wt % of a compound (a solute) based on a total amount of a diluting solvent was dissolved) | 628
19 | CC(C)(C)c1ccccc1Oc1c(Cl)c(Cl)c2c(c1Cl)/C1=N/c3c4c(Cl)c(Oc5ccccc5C(C)(C)C)c(Cl)c(Cl)c4c4[n]3[Zn][n]3/c(c5cc(Cl)c(Cl)cc5/c3=N/C2=N1)=N\C1=NC(=N\4)/c2c(Cl)c(Cl)c(Cl)c(Cl)c21 [Comparative Synthesis Example 5, reference compound] | X (Less than 10 wt % of a compound (a solute) based on a total amount of a diluting solvent was dissolved) | 625
20 | CC(C)(C)COc1c(Cl)c(Cl)c2c(c1Cl)/C1=N/c3c4c(Cl)c(OCC(C)(C)C)c(Cl)c(Cl)c4c4[n]3[Zn][n]3/c(c5ccccc5/c3=N/C2=N1)=N\C1=NC(=N\4)/c2c(Cl)c(Cl)c(Cl)c(Cl)c21 [Synthesis Example 12] | ○ | 617
21 | CC(C)c1ccccc1Oc1c(Cl)c(Cl)c2c(c1Cl)/C1=N/c3c4c(Cl)c(Oc5ccccc5C(C)C)c(Cl)c(Cl)c4c4[n]3[Zn][n]3/c(c5ccccc5/c3=N/C2=N1)=N\C1=NC(=N\4)/c2c(Cl)c(Cl)c(Cl)c(Cl)c21 [Synthesis Example 1] | ○ | 616
22 | CC(C)c1ccccc1Oc1c(Cl)c(Cl)c2c(c1Cl)/C1=N/c3c4c(Cl)c(Cl)c(Cl)c(Cl)c4c4[n]3[Zn][n]3/c(c5ccccc5/c3=N/C2=N1)=N\C1=NC(=N\4)/c2c(Cl)c(Cl)c(Cl)c(Cl)c21 [Synthesis Example 2] | ○ | 617
